The target of this test is T1, human AT1R (Homo sapiens, UniProt P30556).
T1 sequence (P30556 1-359): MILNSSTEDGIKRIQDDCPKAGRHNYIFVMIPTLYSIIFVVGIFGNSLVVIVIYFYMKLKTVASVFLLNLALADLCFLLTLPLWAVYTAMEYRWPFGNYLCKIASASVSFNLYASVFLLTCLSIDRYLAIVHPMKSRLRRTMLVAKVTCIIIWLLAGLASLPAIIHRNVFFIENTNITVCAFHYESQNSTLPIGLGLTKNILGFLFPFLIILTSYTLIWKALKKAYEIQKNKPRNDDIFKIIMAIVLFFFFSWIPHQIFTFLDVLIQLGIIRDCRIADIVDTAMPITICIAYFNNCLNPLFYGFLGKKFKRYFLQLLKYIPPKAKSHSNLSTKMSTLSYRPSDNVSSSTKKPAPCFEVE
In kind it is cell-based. The following applies: CellKey assay, Fig. 1C.

Regarding [Sar^1, Cys^5, Leu^8]‐AngII, the “potency at β‐arrestin stimulation relative to AngII and SII” value is “less potent than AngII but more potent than SII”.

These data come from paper PMC4804318 (Pharmacology Research & Perspectives, 2016).
